Source: ChEMBL document CHEMBL1201862, “PubChem BioAssay data set” (2004)
Where “and” joins values, the source holds several entries; their conditions need not be identical. Equal entries are not always repeated.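 Where inhibition never reached the appropriate level, the endpoint shown equals the highest concentration tested. Otherwise, values were interpolated linearly from a five-concentration, 48-hour dose response in 96-well plates. GI50 = concentration required for 50% inhibition of growth.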 Calls of active or inactive are those of the source. Cut-off read from the data, not from the text of the source: active = GI50 up to about 1.1 µM and inactive = higher.

How the values were obtained:
Test in all cases: NCI tumour cell line growth inhibition, 48 h
MCF7 = tested on: MCF7
SF-539 = tested on: SF-539
NCI-H23 = tested on: NCI-H23
HOP-92 = tested on: HOP-92
RPMI-8226 = tested on: RPMI-8226
NCI/ADR-RES = tested on: NCI/ADR-RES
Malme-3M = tested on: Malme-3M
HOP-62 = tested on: HOP-62
T47D = tested on: T47D
MDA-N = tested on: MDA-N
SF-268 = tested on: SF-268
COLO 205 = tested on: COLO 205
HT-29 = tested on: HT-29
KM12 = tested on: KM12
LOX IMVI = tested on: LOX IMVI
TK-10 = tested on: TK-10
SNB-75 = tested on: SNB-75
RXF 393 = tested on: RXF 393
SK-OV-3 = tested on: SK-OV-3
SK-MEL-2 = tested on: SK-MEL-2
K562 = tested on: K562
SF-295 = tested on: SF-295
HCT-116 = tested on: HCT-116
UACC-62 = tested on: UACC-62
HCT-15 = tested on: HCT-15
HCC 2998 = tested on: HCC 2998
M14 = tested on: M14
NCI-H522 = tested on: NCI-H522
U-251 = tested on: U-251
NCI-H226 = tested on: NCI-H226
OVCAR-3 = tested on: OVCAR-3
SW-620 = tested on: SW-620
OVCAR-4 = tested on: OVCAR-4
SNB-19 = tested on: SNB-19
A549 = tested on: A549
ACHN = tested on: ACHN
OVCAR-8 = tested on: OVCAR-8
IGROV-1 = tested on: IGROV-1
UACC-257 = tested on: UACC-257
CAKI-1 = tested on: CAKI-1
EKVX = tested on: EKVX
OVCAR-5 = tested on: OVCAR-5
SK-MEL-5 = tested on: SK-MEL-5
786-0 = tested on: 786-0
PC-3 = tested on: PC-3
MDA-MB-435 = tested on: MDA-MB-435
DU-145 = tested on: DU-145
SK-MEL-28 = tested on: SK-MEL-28
SR = tested on: SR
NCI-H460 = tested on: NCI-H460
SN12C = tested on: SN12C
Hs-578T = tested on: Hs-578T
HL-60 = tested on: HL-60
MDA-MB-231 = tested on: MDA-MB-231

## CC(C)(O)/C=C\P(C)(=O)c1ccccc1 (stereo not given)
MCF7
  GI50: > 100 µM (inactive)
SF-539
  GI50: > 100 µM (inactive)
NCI-H23
  GI50: > 100 µM (inactive)
HOP-92
  GI50: > 100 µM (inactive)
RPMI-8226
  GI50: 39.4 µM (inactive)
NCI/ADR-RES
  GI50: > 100 µM (inactive)
Malme-3M
  GI50: > 100 µM (inactive)
HOP-62
  GI50: > 100 µM (inactive)
T47D
  GI50: > 100 µM (inactive)
MDA-N
  GI50: > 100 µM (inactive)
SF-268
  GI50: > 100 µM (inactive)
COLO 205
  GI50: > 100 µM (inactive)
HT-29
  GI50: > 100 µM (inactive)
KM12
  GI50: > 100 µM (inactive)
LOX IMVI
  GI50: > 100 µM (inactive)
TK-10
  GI50: > 100 µM (inactive)
SNB-75
  GI50: > 100 µM (inactive)
RXF 393
  GI50: > 100 µM (inactive)
SK-OV-3
  GI50: > 100 µM (inactive)
SK-MEL-2
  GI50: > 100 µM (inactive)
K562
  GI50: > 100 µM (inactive)
SF-295
  GI50: > 100 µM (inactive)
HCT-116
  GI50: > 100 µM (inactive)
UACC-62
  GI50: > 100 µM (inactive)
HCT-15
  GI50: > 100 µM
HCC 2998
  GI50: > 100 µM (inactive)
M14
  GI50: > 100 µM (inactive)
NCI-H522
  GI50: > 100 µM (inactive)
U-251
  GI50: > 100 µM (inactive)
NCI-H226
  GI50: > 100 µM (inactive)
OVCAR-3
  GI50: > 100 µM (inactive)
SW-620
  GI50: > 100 µM (inactive)
OVCAR-4
  GI50: > 100 µM (inactive)
SNB-19
  GI50: > 100 µM (inactive)
A549
  GI50: > 100 µM (inactive)
ACHN
  GI50: > 100 µM (inactive)
OVCAR-8
  GI50: > 100 µM (inactive)
IGROV-1
  GI50: > 100 µM (inactive)
UACC-257
  GI50: > 100 µM (inactive)
CAKI-1
  GI50: > 100 µM (inactive)
EKVX
  GI50: > 100 µM (inactive)
OVCAR-5
  GI50: > 100 µM (inactive)
SK-MEL-5
  GI50: > 100 µM (inactive)
786-0
  GI50: > 100 µM (inactive)
PC-3
  GI50: > 100 µM (inactive)
MDA-MB-435
  GI50: > 100 µM (inactive)
DU-145
  GI50: > 100 µM (inactive)
SK-MEL-28
  GI50: > 100 µM (inactive)
SR
  GI50: > 100 µM (inactive)
NCI-H460
  GI50: > 100 µM (inactive)
SN12C
  GI50: > 100 µM (inactive)
Hs-578T
  GI50: > 100 µM (inactive)

## CC(CN(C)C)Nc1c2ccccc2nc2cccc([N+](=O)[O-])c12 (stereo not given)
MDA-N
  GI50: 0.23 µM (active)
NCI-H522
  GI50: 0.0268 µM (active)
HL-60
  GI50: 0.203 µM (active)

## O=C1CC(CC(OCc2ccccc2)C(OCc2ccccc2)C(COCc2ccccc2)OCc2ccccc2)CC(=O)N1 (stereo not given)
HOP-92
  GI50: > 100 µM (inactive)
T47D
  GI50: > 10 µM (inactive)
HT-29
  GI50: 4.53 µM (inactive)
TK-10
  GI50: > 100 µM (inactive) and 81.8 µM (inactive)
MDA-MB-231
  GI50: 8.67 µM (inactive)
